The assay deals with T1, human CRHR2b (Homo sapiens, UniProt Q13324).
T1 construct: expressed in transfected cells; host or cells: Chinese Hamster Ovary (CHO) cells, transient transfection
T1 sequence (Q13324 1-438 isoform Q13324-2): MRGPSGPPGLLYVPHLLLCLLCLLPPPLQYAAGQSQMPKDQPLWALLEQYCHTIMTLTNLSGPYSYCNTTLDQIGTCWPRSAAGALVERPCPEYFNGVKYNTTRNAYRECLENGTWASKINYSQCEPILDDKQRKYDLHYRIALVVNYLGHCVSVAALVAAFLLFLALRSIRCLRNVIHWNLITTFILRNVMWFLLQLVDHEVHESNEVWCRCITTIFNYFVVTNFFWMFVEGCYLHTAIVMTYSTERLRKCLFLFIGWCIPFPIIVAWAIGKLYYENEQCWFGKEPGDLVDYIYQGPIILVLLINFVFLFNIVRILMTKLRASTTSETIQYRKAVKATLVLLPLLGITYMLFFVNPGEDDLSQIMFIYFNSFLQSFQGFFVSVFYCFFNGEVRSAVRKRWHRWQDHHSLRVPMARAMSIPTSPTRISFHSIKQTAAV
Briefly: human CRHR2b cell-based cAMP assay. Conditions: cAMP assay; Table 26, compounds of Example 9; read-out: hCRHR2b Average EC50. As to the method:
CRHR agonistic activity is measured in a cell-based cAMP assay. Serial dilutions of the test peptides are made in assay buffer containing Hank's Balanced Salt Solution (HBSS, without phenol red) supplemented with 20 mM HEPES and 0.05% lactalbumin enzymatic hydrolysate (LAH) (“assay buffer”). […] A one to three dilution of the test peptides is used in both assays. Receptor over-expressing Chinese Hamster Ovary (CHO) cell line is used for the human CRHR2b assay. […] AF011406.1). Forty-eight hours after the transfection, the cells are centrifuged to remove the culture media and resuspended in fetal bovine serum containing 5% DMSO. They are cryofrozen and stored in vials in liquid nitrogen (20×10^6 cells/ml/vial). On the day of the assay, cells are thawed and resuspended in cold 30 ml culture media supplemented with 20 mM HEPES. The cells are then centrifuged to remove the media and washed once with HBSS supplemented with 20 mM HEPES. Finally, following the last centrifugation, the cells are resuspended in assay buffer. Thirty-thousand cells are used in the human CRHR2b assay for each treatment. The cells are dispensed into Costar 96-well black polystyrene half area EIA/RIA plates (Corning Incorporated, Corning, N.Y.) followed by the addition of the diluted peptides, each at a volume of 20 μL. The agonist induced cAMP levels are detected using a HTRF cAMP Dynamic 2 kit (CisBio, Bedford, Mass.). After incubation at 37° C. for 30 min, the assay is stopped by cell lysis via the addition of 20 μL of d2-labeled cAMP and followed by 20 μL of cryptate-labeled anti-cAMP antibody, as described by the manufacturer. Cellular cAMP (as a result of agonist stimulation) competes with the d2-labeled cAMP for binding to the antibody. HTRF detection is performed on an Envision plate reader (Perkin Elmer Life and Analytical Sciences, Waltham, Mass.) by measuring ratiometric emission at 620 and 665 nm after excitation at 320 nm. The data are converted to picomoles of cAMP using a standard curve obtained from the same assay performed with varying concentrations of unlabeled cAMP. […] The data are analyzed using a Curve Fitting Tool to calculate ED50. Numeric values shown below in Table 1 represent the mean of multiple runs (number of runs shown in parentheses) following the mean value±SEM.
(Changes in cAMP serve as a functional read-out for many G protein-coupled receptors.)

Starred links: 1 amine or outer side, 2 acyl side, 3 side chain; linkers in the order of their positions; H or OH if unused. Residues, ends and D or L forms follow the SMILES beside them. Groups on a side chain read outwards from the residue. *: point of attachment. γGlu = O=C(O)[C@H](CCC(=O)[*:2])N[*:1]; Palmitoyl = CCCCCCCCCCCCCCCC(=O)*; AEEA = NCCOCCOCC(=O)O

For 5 compounds, EC50 results are on record in US10894817B2, “Fatty acid modified urocortin-2 analogs for the treatment of diabetes and chronic kidney disease” (priority 2016, dated 2021).

The term EC50 denotes the concentration needed to bring the measured effect to its halfway point.

Turning to `CCCCCCCCCCCCCCCC(=O)N[C@@H](CCC(=O)N[C@@H](CCC(=O)NCCCC[C@H](NC(=O)[C@H](CCC(=O)O)NC(=O)[C@H](CCCCN)NC(=O)[C@H](CCC(=O)O)NC(=O)[C@H](CCC(N)=O)NC(=O)[C@H](CCCCN)NC(=O)[C@H](CCC(=O)O)NC(=O)[C@H](CCC(N)=O)NC(=O)[C@H](CCC(=O)O)NC(=O)[C@H](CC(C)C)NC(=O)[C@H](CC(C)C)NC(=O)[C@@H](NC(=O)[C@H](CCC(N)=O)NC(=O)[C@H](CC(C)C)NC(=O)[C@H](CC(C)C)NC(=O)CNC(=O)[C@@H](NC(=O)[C@@H]1CCCN1C(=O)[C@@H](NC(=O)[C@H](CC(=O)O)NC(=O)[C@H](CC(C)C)NC(=O)[C@H](CO)NC(=O)[C@H](CC(C)C)NC(=O)[C@@H](NC(=O)[C@@H](N)[C@@H](C)CC)C(C)C)C(C)C)[C@@H](C)CC)[C@@H](C)CC)C(=O)N[C@@H](CCC(N)=O)C(=O)N[C@@H](CCC(N)=O)C(=O)N[C@@H](C)C(=O)N[C@H](C(=O)N[C@H](C(=O)N[C@@H](CC(N)=O)C(=O)N[C@@H](C)C(=O)N[C@@H](CCCNC(=N)N)C(=O)N[C@H](C(=O)N[C@@H](CC(C)C)C(=O)N[C@@H](C)C(=O)N[C@@H](CCCNC(=N)N)C(=O)N[C@H](C(N)=O)C(C)C)[C@@H](C)CC)[C@@H](C)O)[C@@H](C)O)C(=O)O)C(=O)O` [Compound 31] (H-IVLSLDVPIGLLQILLEQEKQEKEK([γGlu-γGlu-Palmitoyl])QQATTNARILARV-NH2), the EC50 worked out at 3.2 nM.
Consider `CCCCCCCCCCCCCCCC(=O)N[C@@H](CCC(=O)NCCOCCOCC(=O)NCCCC[C@H](NC(=O)[C@H](CCC(=O)O)NC(=O)[C@H](CCCCN)NC(=O)[C@H](CCC(=O)O)NC(=O)[C@H](CCC(N)=O)NC(=O)[C@H](CCCCN)NC(=O)[C@H](CCC(=O)O)NC(=O)[C@H](CCC(N)=O)NC(=O)[C@H](CCC(=O)O)NC(=O)[C@H](CC(C)C)NC(=O)[C@H](CC(C)C)NC(=O)[C@@H](NC(=O)[C@H](CCC(N)=O)NC(=O)[C@H](CC(C)C)NC(=O)[C@H](CC(C)C)NC(=O)CNC(=O)[C@@H](NC(=O)[C@@H]1CCCN1C(=O)[C@@H](NC(=O)[C@H](CC(=O)O)NC(=O)[C@H](CC(C)C)NC(=O)[C@H](CO)NC(=O)[C@H](CC(C)C)NC(=O)[C@@H](NC(=O)[C@@H](N)[C@@H](C)CC)C(C)C)C(C)C)[C@@H](C)CC)[C@@H](C)CC)C(=O)N[C@@H](CCC(N)=O)C(=O)N[C@@H](CCC(N)=O)C(=O)N[C@@H](C)C(=O)N[C@H](C(=O)N[C@H](C(=O)N[C@@H](CC(N)=O)C(=O)N[C@@H](C)C(=O)N[C@@H](CCCNC(=N)N)C(=O)N[C@H](C(=O)N[C@@H](CC(C)C)C(=O)N[C@@H](C)C(=O)N[C@@H](CCCNC(=N)N)C(=O)N[C@H](C(N)=O)C(C)C)[C@@H](C)CC)[C@@H](C)O)[C@@H](C)O)C(=O)O` [Compound 32] (H-IVLSLDVPIGLLQILLEQEKQEKEK([AEEA-γGlu-Palmitoyl])QQATTNARILARV-NH2), for which the EC50 turned out to be 9.18 nM.
As for `CCCCCCCCCCCCCCCC(=O)N[C@@H](CCC(=O)NCCCC[C@H](NC(=O)[C@H](CCCCN)NC(=O)[C@H](CCC(=O)O)NC(=O)[C@H](CCCCN)NC(=O)[C@H](CCC(=O)O)NC(=O)[C@H](CCC(N)=O)NC(=O)[C@H](CCCCN)NC(=O)[C@H](CCC(=O)O)NC(=O)[C@H](CCC(N)=O)NC(=O)[C@H](CCC(=O)O)NC(=O)[C@H](CC(C)C)NC(=O)[C@H](CC(C)C)NC(=O)[C@@H](NC(=O)[C@H](CCC(N)=O)NC(=O)[C@H](CC(C)C)NC(=O)[C@H](CC(C)C)NC(=O)CNC(=O)[C@@H](NC(=O)[C@@H]1CCCN1C(=O)[C@@H](NC(=O)[C@H](CC(=O)O)NC(=O)[C@H](CC(C)C)NC(=O)[C@H](CO)NC(=O)[C@H](CC(C)C)NC(=O)[C@@H](NC(=O)[C@@H](N)[C@@H](C)CC)C(C)C)C(C)C)[C@@H](C)CC)[C@@H](C)CC)C(=O)N[C@@H](CCC(N)=O)C(=O)N[C@@H](C)C(=O)N[C@H](C(=O)N[C@H](C(=O)N[C@@H](CC(N)=O)C(=O)N[C@@H](C)C(=O)N[C@@H](CCCNC(=N)N)C(=O)N[C@H](C(=O)N[C@@H](CC(C)C)C(=O)N[C@@H](C)C(=O)N[C@@H](CCCNC(=N)N)C(=O)N[C@H](C(N)=O)C(C)C)[C@@H](C)CC)[C@@H](C)O)[C@@H](C)O)C(=O)O` [Compound 33] (H-IVLSLDVPIGLLQILLEQEKQEKEKK([γGlu-Palmitoyl])QATTNARILARV-NH2), the EC50 was found to be 8.68 nM.
In the case of `CCCCCCCCCCCCCCCC(=O)N[C@@H](CCC(=O)N[C@@H](CCC(=O)NCCCC[C@H](NC(=O)[C@H](CCCCN)NC(=O)[C@H](CCC(=O)O)NC(=O)[C@H](CCCCN)NC(=O)[C@H](CCC(=O)O)NC(=O)[C@H](CCC(N)=O)NC(=O)[C@H](CCCCN)NC(=O)[C@H](CCC(=O)O)NC(=O)[C@H](CCC(N)=O)NC(=O)[C@H](CCC(=O)O)NC(=O)[C@H](CC(C)C)NC(=O)[C@H](CC(C)C)NC(=O)[C@@H](NC(=O)[C@H](CCC(N)=O)NC(=O)[C@H](CC(C)C)NC(=O)[C@H](CC(C)C)NC(=O)CNC(=O)[C@@H](NC(=O)[C@@H]1CCCN1C(=O)[C@@H](NC(=O)[C@H](CC(=O)O)NC(=O)[C@H](CC(C)C)NC(=O)[C@H](CO)NC(=O)[C@H](CC(C)C)NC(=O)[C@@H](NC(=O)[C@@H](N)[C@@H](C)CC)C(C)C)C(C)C)[C@@H](C)CC)[C@@H](C)CC)C(=O)N[C@@H](CCC(N)=O)C(=O)N[C@@H](C)C(=O)N[C@H](C(=O)N[C@H](C(=O)N[C@@H](CC(N)=O)C(=O)N[C@@H](C)C(=O)N[C@@H](CCCNC(=N)N)C(=O)N[C@H](C(=O)N[C@@H](CC(C)C)C(=O)N[C@@H](C)C(=O)N[C@@H](CCCNC(=N)N)C(=O)N[C@H](C(N)=O)C(C)C)[C@@H](C)CC)[C@@H](C)O)[C@@H](C)O)C(=O)O)C(=O)O` [Compound 34] (H-IVLSLDVPIGLLQILLEQEKQEKEKK([γGlu-γGlu-Palmitoyl])QATTNARILARV-NH2), the EC50 amounted to 4.54 nM.
Then `CCCCCCCCCCCCCCCC(=O)N[C@@H](CCC(=O)NCCCC[C@H](NC(=O)[C@H](CCC(N)=O)NC(=O)[C@H](CCCCN)NC(=O)[C@H](CCC(=O)O)NC(=O)[C@H](CCCCN)NC(=O)[C@H](CCC(=O)O)NC(=O)[C@H](CCC(N)=O)NC(=O)[C@H](CCCCN)NC(=O)[C@H](CCC(=O)O)NC(=O)[C@H](CCC(N)=O)NC(=O)[C@H](CCC(=O)O)NC(=O)[C@H](CC(C)C)NC(=O)[C@H](CC(C)C)NC(=O)[C@@H](NC(=O)[C@H](CCC(N)=O)NC(=O)[C@H](CC(C)C)NC(=O)[C@H](CC(C)C)NC(=O)CNC(=O)[C@@H](NC(=O)[C@@H]1CCCN1C(=O)[C@@H](NC(=O)[C@H](CC(=O)O)NC(=O)[C@H](CC(C)C)NC(=O)[C@H](CO)NC(=O)[C@H](CC(C)C)NC(=O)[C@@H](NC(=O)[C@@H](N)[C@@H](C)CC)C(C)C)C(C)C)[C@@H](C)CC)[C@@H](C)CC)C(=O)N[C@@H](C)C(=O)N[C@H](C(=O)N[C@H](C(=O)N[C@@H](CC(N)=O)C(=O)N[C@@H](C)C(=O)N[C@@H](CCCNC(=N)N)C(=O)N[C@H](C(=O)N[C@@H](CC(C)C)C(=O)N[C@@H](C)C(=O)N[C@@H](CCCNC(=N)N)C(=O)N[C@H](C(N)=O)C(C)C)[C@@H](C)CC)[C@@H](C)O)[C@@H](C)O)C(=O)O` [Compound 35] (H-IVLSLDVPIGLLQILLEQEKQEKEKQK([γGlu-Palmitoyl])ATTNARILARV-NH2), with 404 nM.
